How the values were obtained:
[1] = biological target: Recombinant human Menin protein (2-610) / MLL polypeptide binding (Homo sapiens (Human), UniProt O00255); assay: Menin and MLL protein binding at a molecular level (fluorescence polarization method); settings: inhibition of Menin / MLL polypeptide binding
Outline: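 Binding of recombinant human Menin (2-610) to 6-FAM-labelled MLL peptide measured by fluorescence polarization (ex 480/em 535 nm) in Tris/NaCl/TCEP buffer, pH 7.5, 2% DMSO. Compound preincubated with Menin 30 min at room temperature, then peptide added for 30 min in the dark. Tested at 1.000 down to 0.0005 μM final.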

[2] = tested on: MV-4-11 cells (human acute myelogenous leukemia cell line carrying MLL-AF4 mutation); assay: Cell proliferation assay, MV-4-11 (CellTiter-Glo); format: cell-based; settings: Homo sapiens, MV4-11, 72 h, MV-4-11 cells, 3 days treatment, CellTiter-Glo; read-out: GI50
Outline: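 MV-4-11 cells (3000/well, IMDM with 10% HIFBS and 50 μM β-mercaptoethanol) exposed to compound at 1.100–0.001 μM final, 0.1% DMSO, for 3 days at 37°C. Viability read by CellTiter-Glo luminescence on day 0 and day 3, normalised to day-0 and untreated wells.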

Chain of Recombinant human Menin protein (2-610) / MLL polypeptide binding (O00255 2-610): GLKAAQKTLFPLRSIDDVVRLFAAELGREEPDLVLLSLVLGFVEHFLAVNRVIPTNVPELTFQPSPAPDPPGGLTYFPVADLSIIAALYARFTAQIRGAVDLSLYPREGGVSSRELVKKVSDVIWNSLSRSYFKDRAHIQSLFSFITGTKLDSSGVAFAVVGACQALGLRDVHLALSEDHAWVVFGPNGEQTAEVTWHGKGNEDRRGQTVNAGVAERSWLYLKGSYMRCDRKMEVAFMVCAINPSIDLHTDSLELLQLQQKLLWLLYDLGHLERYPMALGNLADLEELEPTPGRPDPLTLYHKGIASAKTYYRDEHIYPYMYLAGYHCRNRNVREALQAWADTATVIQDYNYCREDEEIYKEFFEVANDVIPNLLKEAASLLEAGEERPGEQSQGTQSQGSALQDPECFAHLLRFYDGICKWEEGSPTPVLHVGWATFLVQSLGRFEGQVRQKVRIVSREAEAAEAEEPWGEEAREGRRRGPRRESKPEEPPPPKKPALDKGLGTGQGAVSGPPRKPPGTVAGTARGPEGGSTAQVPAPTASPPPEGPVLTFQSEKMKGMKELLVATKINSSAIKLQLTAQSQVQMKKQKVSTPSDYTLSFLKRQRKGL

Row | IC50 [1] | GI50 [2] | SMILES
1 | 3.3 nM | 9 nM | CCN(C(=S)c1cc(F)ccc1Oc1nncnc1N1CC2(CCN(CC3CCN(c4cc(OC)c(OC)nn4)CC3)CC2)C1)C(C)C [Compound 107]
2 | 175 nM | 255 nM | N#Cc1ccc(N2CCC(CN3CCC4(CC3)CN(c3ncnnc3Oc3ccc(F)cc3C3=CCOCC3)C4)CC2)nc1 [Compound 117]
3 | 4.6 nM | 27 nM | CCN(C(=O)c1cc(F)ccc1Oc1nncnc1N1CC2(CCN(CC3CCN(c4cccc(N)n4)CC3)CC2)C1)C(C)C [Compound 164, 2-((5-(7-((1-(6-aminopyridin-2-yl)piperidin-4-yl)methyl)-2,7-diazaspiro[3.5]nonan-2-yl)-1,2,4-triazin-6-yl)oxy)-N-ethyl-5-fluoro-N-isopropylbenzamide]
4 | 5.3 nM | 13 nM | CCN(C(=O)c1cc(F)ccc1Oc1nncnc1N1CC2(CCN(CC3CCN(c4ccncn4)CC3)CC2)C1)C(C)C [Compound 165, N-ethyl-5-fluoro-N-isopropyl-2-((5-(7-((1-(pyrimidin-4-yl)piperidin-4-yl)methyl)-2,7-diazaspiro[3.5]nonan-2-yl)-1,2,4-triazin-6-yl)oxy)benzamide]
5 | 2.9 nM | 18 nM | CCN(C(=O)c1cc(F)ccc1Oc1nncnc1N1CC2(CCN(CC3CCN(C(=O)NC4COC4)CC3)CC2)C1)C(C)C [Compound 33]
6 | 41.8 nM | 44 nM | CCN(C(=O)c1cc(F)ccc1Oc1nncnc1N1CC2(CCN(CC3CCN(C(=O)c4ccccn4)CC3)CC2)C1)C(C)C [Compound 15]
7 | 68.3 nM | 97 nM | CCN(C(=O)c1cc(F)ccc1Oc1nncnc1N1CC2(CCN(CC3CCN(C[C@@H](O)CC#N)CC3)CC2)C1)C(C)C [Compound 39]
8 | 292 nM | 276 nM | Cc1c(CN2CCC3(CC2)CN(c2ncnnc2Oc2ccc(F)cc2)C3)ccc2c1cc(C#N)n2CCO [Compound 155]
9 | 2.6 nM | 7 nM | CCN(C(=O)c1cc(F)ccc1Oc1nncnc1N1CC2(CCN(CC3CCN(c4ccn5nccc5n4)CC3)CC2)C1)C(C)C [Compound 82]
10 | 155 nM | 284 nM | O=C(NC1CC1)N1CCC(CN2CCC3(CC2)CN(c2ncnnc2Oc2ccc(F)cc2)C3)CC1 [Compound 31]
11 | 3.9 nM | 7 nM | CCN(C(=O)c1cc(F)ccc1Oc1nncnc1N1CC2(CCN(CC3CCN(c4cc(C(F)(F)F)cnn4)CC3)CC2)C1)C(C)C [Compound 45]
12 | > 1000 nM | > 3300 nM | CCN(C(=O)c1cc(F)ccc1Oc1nncnc1N1CC2(CCN(Cc3ccc(Cl)nc3)CC2)C1)C(C)C [Compound 59]
13 | > 200 nM | 585 nM | CCN(C(=O)c1cc(F)ccc1Oc1nncnc1N1CC2(CCN(CC3CCC(O)(c4ccccn4)CC3)CC2)C1)C(C)C (stereo not shown) [Compound 125]
14 | 8.1 nM | 24 nM | CCN(C(=O)c1cc(F)ccc1Oc1nncnc1N1CC2(CCN(CC3CCN(C(=O)NCc4ccccc4)CC3)CC2)C1)C(C)C [Compound 34]
15 | 98.7 nM | 58 nM | C=CC(=O)N1CCC(CN2CCC3(CC2)CN(c2ncnnc2Oc2ccc(F)cc2C(=O)N(CC)C(C)C)C3)CC1 [Compound 20, 2-((5-(7-((1-acryloylpiperidin-4-yl)methyl)-2,7-diazaspiro[3.5]nonan-2-yl)-1,2,4-triazin-6-yl)oxy)-N-ethyl-5-fluoro-N-isopropylbenzamide]
16 | 10.9 nM | 22 nM | COc1cc(N2CCC(CN3CCC4(CC3)CN(c3ncnnc3Oc3ccc(F)cc3-c3ccnn3C)C4)CC2)nnc1OC [Compound 92]
17 | 878 nM | 932 nM | C[C@H]1CN(C)CCN1C(=O)c1cc(F)ccc1Oc1nncnc1N1CC2(CCN(CC3CCN(c4ccccn4)CC3)CC2)C1 [Compound 76]
18 | 4.3 nM | 14 nM | CCN(C(=O)c1cc(F)ccc1Oc1nncnc1N1CC2(CCN(CC3CCN(c4ccc(C5CC5)nn4)CC3)CC2)C1)C(C)C [Compound 44]
19 | 3.1 nM | 8 nM | CCN(C(=O)c1cc(F)ccc1Oc1nncnc1N1CC2(CCN(CC3CCN(c4cnc(Cl)nn4)CC3)CC2)C1)C(C)C [Compound 41]
20 | 2.6 nM | 3 nM | CCN(C(=O)c1cc(F)ccc1Oc1nncnc1N1CC2(CCN(CC3CCN(c4ccc(C#N)nn4)CC3)CC2)C1)C(C)C [Compound 47]
21 | 21.3 nM | 58 nM | CCN(C(=O)c1cc(F)ccc1Oc1nncnc1N1CC2(CCN(CC3CCN(C(=O)C4COC4)CC3)CC2)C1)C(C)C [Compound 5]

Row | IC50 [1] | GI50 [2] | SMILES
22 | 2.8 nM | 4 nM | CCN(C(=O)c1cc(F)ccc1Oc1nncnc1N1CC2(CCN(CC3CCN(c4cc(OC)cnn4)CC3)CC2)C1)C(C)C [Compound 89]
23 | 10.7 nM | 35 nM | CCN(C(=O)c1cc(F)ccc1Oc1nncnc1N1CC2(CCN(CC3CCN(C(=O)NCCOC)CC3)CC2)C1)C(C)C [Compound 35]
24 | 30 nM | 39 nM | CCN(C(=O)c1cc(F)ccc1Oc1nncnc1N1CC2(CCN(CC3CCN(C(=O)C4(C(F)(F)F)CC4)CC3)CC2)C1)C(C)C [Compound 2]
25 | 3.5 nM | 4 nM | CCN(C(=O)c1cc(F)ccc1Oc1nncnc1N1CC2(CCN(CC3CCN(c4ccn5ncnc5c4)CC3)CC2)C1)C(C)C [Compound 55, 2-((5-(7-((1-([1,2,4]triazolo[1,5-a]pyridin-7-yl)piperidin-4-yl)methyl)-2,7-diazaspiro[3.5]nonan-2-yl)-1,2,4-triazin-6-yl)oxy)-N-ethyl-5-fluoro-N-isopropylbenizamide]
26 | 34.6 nM | 86 nM | CCN(C(=O)c1cc(F)ccc1Oc1nncnc1N1CC2(CCN(CC3CCN(C(=O)C4(OC)CC4)CC3)CC2)C1)C(C)C [Compound 8]
27 | 23 nM | 54 nM | CCN(C(=O)c1cc(F)ccc1Oc1nncnc1N1CC2(CCN(CC3CCN(C(=O)N(C)C)CC3)CC2)C1)C(C)C [Compound 24]
28 | 1 nM | 4 nM | CCN(C(=O)c1cc(F)ccc1Oc1nncnc1N1CC2(CCN(CC3CCN(C(=O)NC4CCC4)CC3)CC2)C1)C(C)C [Compound 32]
29 | 3.9 nM | 10 nM | C=CC(=O)Nc1ccc(N2CC3(CCC(CN4CCC5(CC4)CN(c4ncnnc4Oc4ccc(F)cc4C(=O)N(CC)C(C)C)C5)CC3)C2)cc1 [Compound 180]
30 | 0.8 nM | 2 nM | CCN(C(=O)c1cc(F)ccc1Oc1nncnc1N1CCC2(CN(CC3CCN(c4cc(OC)c(OC)nn4)CC3)C2)C1)C(C)C [Compound 94]
31 | 18.7 nM | 22 nM | Cc1nc(-c2cc(F)ccc2Oc2nncnc2N2CC3(CCN(Cc4ccc5c(cc(C#N)n5CCO)c4C)CC3)C2)n(C(C)C)n1 [Compound 161]
32 | 116 nM | 1390 nM | CCN(C(=O)c1cc(F)ccc1Oc1nncnc1N1CC2(CCN(CC3CCN(CC(O)C(N)=O)CC3)CC2)C1)C(C)C (stereo not shown) [Compound 147, 2-((5-(7-((1-(3-amino-2-hydroxy-3-oxopropyl)piperidin-4-yl)methyl)-2,7-diazaspiro[3.5]nonan-2-yl)-1,2,4-triazin-6-yl)oxy)-N-ethyl-5-fluoro-N-isopropylbenzamide]
33 | 4 nM | 2 nM | C=CC(=O)Nc1cccc(N2CCC(CN3CCC4(CC3)CN(c3ncnnc3Oc3ccc(F)cc3C(=O)N(CC)C(C)C)C4)CC2)c1 [Compound 183]
34 | 41.3 nM | 56 nM | CCN(C(=O)c1cc(F)ccc1Oc1nncnc1N1CC2(CCN(C(C)C3CCN(c4cc(OC)c(OC)nn4)CC3)CC2)C1)C(C)C (stereo not shown) [Compound 171, 2-((5-(7-(1-(1-(5,6-dimethoxypyridazin-3-yl)piperidin-4-yl)ethyl)-2,7-diazaspiro[3.5]nonan-2-yl)-1,2,4-triazin-6-yl)oxy)-N-ethyl-5-fluoro-N-isopropylbenzamide]
35 | 357 nM | 369 nM | CCN(C(=O)c1cc(F)ccc1Oc1nncnc1N1CC2(CCN(Cc3ccc4c(cc(C(=O)NC)n4CCO)c3C)CC2)C1)C(C)C [Compound 152, 5-((2-(6-(2-(ethyl(isopropyl)carbamoyl)-4-fluorophenoxy)-1,2,4-triazin-5-yl)-2,7-diazaspiro[3.5]nonan-7-yl)methyl)-1-(2-hydroxyethyl)-N,4-dimethyl-1H-indole-2-carboxamide]
36 | 6.7 nM | 13 nM | CCN(C(=O)c1cc(F)ccc1Oc1nncnc1N1CC2(CCN(CC3CCN(C(=O)C4CC(F)(F)C4)CC3)CC2)C1)C(C)C [Compound 6]
37 | 102 nM | 409 nM | CCN(C(=O)c1cc(F)ccc1Oc1nncnc1N1CC2(CCN(CC3CCN(Cc4c(C)cc(C)[nH]c4=O)CC3)CC2)C1)C(C)C [Compound 138]
38 | 55.5 nM | 22 nM | CCN(C(=O)c1cc(F)ccc1Oc1nncnc1N1CC2(CCN(CC3CCC(c4ccccn4)CC3)CC2)C1)C(C)C (stereo not shown) [Compound 135, N-ethyl-5-fluoro-N-isopropyl-2-((5-(7-((4-(pyridin-2-yl)cyclohexyl)methyl)-2,7-diazaspiro[3.5]nonan-2-yl)-1,2,4-triazin-6-yl)oxy)benzamide]
39 | 89.4 nM | 110 nM | CCN(C(=O)c1cc(F)ccc1Oc1nncnc1N1CC2(CCN(Cc3ccc(NCC#N)cc3C)CC2)C1)C(C)C [Compound 61]
40 | 53.5 nM | 70 nM | CCN(C(=O)c1cc(F)ccc1Oc1nncnc1N1CC2(CCN(CC3CCN(c4ccc(C#N)cn4)CC3)CC2)C1)C1CC1 [Compound 116]
41 | 25.5 nM | 7 nM | C=CC(=O)Nc1cccc(N2CC3(CCC(CN4CCC5(CC4)CN(c4ncnnc4Oc4ccc(F)cc4C(=O)N(CC)C(C)C)C5)CC3)C2)c1 [Compound 181]

From patent publication US20260055108A1, “TRIAZINE COMPOUNDS AND USES THEREOF” (HUTCHMED LIMITED, priority 2022, published 2026)
